Measurements as given in patent publication US7648999B2, “Activator for peroxisome proliferator-activated receptor δ” (Nippon Chemiphar Co., Ltd., priority 2007, dated 2010).

Columns and labels:
db/db mice = assay: HDL cholesterol elevating effect in db/db mice; format: in vivo; details: for Ratio of increasing HDL cholesterol (% to control): 10 mg/kg/b.i.d. orally for one week, serum 16 hours after final administration; for HDL cholesterol elevating effect (in words): oral, one week twice daily
Protocol: HDL cholesterol elevating effect was measured by using db/db mice, which are hereditary obesity mice. The db/db mice (10 weeks old) were divided into groups based on serum HDL cholesterol levels. […] Mice of the control group (to which no agent was administered) were orally given 1% methyl cellulose solution. After 16 hours from the final administration, blood sample was collected, and serum HDL cholesterol level was measured. HDL cholesterol was separated by electrophoresis on agarose gels (Chol/Trig Combo, Helena Laboratories). […] HDL cholesterol levels were calculated from total cholesterol levels and HDL cholesterol/total cholesterol ratios.
Each value represents as % of the control group.

PPARα (GAL4-hPPARα LBD) = target: T1, PPARα (GAL4-hPPARα LBD) (Homo sapiens, UniProt Q07869); assay: PPARα transactivation activity (GAL4 chimera luciferase reporter in CV-1 cells); format: cell-based
T1 construct: Receptor expression plasmid (GAL4-hPPARα, LBD GAL4-hPPARγ LBD, GAL4-hPPARδ LBD); expressed in transfected cells; host or cells: CV-1 cells
T1 sequence (Q07869 239-466 limits assumed): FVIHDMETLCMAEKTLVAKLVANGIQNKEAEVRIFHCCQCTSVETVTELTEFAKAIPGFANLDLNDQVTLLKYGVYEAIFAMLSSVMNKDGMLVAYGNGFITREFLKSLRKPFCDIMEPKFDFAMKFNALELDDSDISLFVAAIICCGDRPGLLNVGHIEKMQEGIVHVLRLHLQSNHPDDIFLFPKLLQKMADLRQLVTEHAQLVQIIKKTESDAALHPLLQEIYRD

PPARδ (GAL4-hPPARδ LBD) = target: T2, PPARδ (GAL4-hPPARδ LBD) (Homo sapiens, UniProt Q03181); assay: PPARδ transactivation activity (GAL4 chimera luciferase reporter in CV-1 cells); format: cell-based
T2 construct: A chimeric receptor expression plasmid (GAL4-hPPARδ LBD), a reporter plasmid (UASx4-TK-LUC); expressed in transfected cells; host or cells: CV-1 cells
T2 sequence (Q03181 211-439 limits assumed): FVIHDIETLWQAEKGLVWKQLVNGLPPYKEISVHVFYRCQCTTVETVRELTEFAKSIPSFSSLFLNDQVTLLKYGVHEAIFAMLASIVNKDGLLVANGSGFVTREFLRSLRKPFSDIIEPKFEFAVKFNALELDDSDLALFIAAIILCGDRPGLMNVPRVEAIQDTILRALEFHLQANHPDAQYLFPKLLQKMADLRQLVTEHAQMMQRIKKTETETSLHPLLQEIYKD
Protocol: A chimeric receptor expression plasmid (GAL4-hPPARδ LBD), a reporter plasmid (UASx4-TK-LUC) and β-galactosidase (β-GAL) are transfected into CV-1 cells by utilizing a lipofection reagent DMRIE-C (Life Technologies).
(1) Measurement of PPARα, γ, δ Transactivation Activity
CV-1 cells were obtained from Tohoku University Aging Medical Laboratory, Medical Cell Collection Center. All test compounds were dissolved in dimethylsulfoxide (DMSO). Final concentration of DMSO was 0.1%.
CV-1 cells were seeded in 24 well culture plates at 2×10^5 cells per well, and cultured for 24 hours OPTI-MEM I Reduced Serum Medium (Life Technologies, 500 μL/well) containing 4%-fetal bovine serum (FBS). After washing with OPTI-MEM, transfection mixture (250 μL/well) containing 0.03 μg of GAL4-hPPARδ LBD, 0.25 μg of UASx-4-TK-LUC, 0.35 μg of βGAL, and 2 μL of lipofection reagent, DMRIE-C (Life Technologies) were added. The cells were incubated for 5 hours at 37° C.
The cells were washed and incubated for 40 hours in the presence of the test compound (final concentration was 10^−7M or 10^−6M)
The culture medium was removed and the cells were washed with PBS twice. A solubilizing buffer (100 μL/well) containing 25 mM Tris-PO4 (pH 7.8), 15% v/v glycerol, 2% CHAPS, 1% Lecithin, 1% BSA, 4 mM EGTA (pH 8.0), 8 mM MgCl2, 1 mM DTT was added. After the incubation for 10 minutes at room temperature, a portion (20 μL) of the solution was transferred into a 96-well plate. Subsequently, 100 μL of luciferase substrate solution (Piccagene: available from Nippon Gene Co., Ltd.) was added, and a luminous intensity per one second (luciferase activity) was measured using a microluminoreader (Type MLR-100, Corona Electrics Co., Ltd.). Each luciferase activity was corrected by the transfection efficiency which was calculated from β-galactosidase activity. The assay method of β-galactosidase activity was as follows: A portion (50 μL) of the solubilized sample was transferred into another 96-well plate; 100 μL of ONPG (2-nitrophenyl-β-galactopyranoside) solution was added and incubated for 5 minutes at room temperature. 50 μL of a reaction stopping solution (1M sodium carbonate solution) was added. Then the absorbance at 414 nm was measured.

PPARγ (GAL4-hPPARγ LBD) = target: T3, PPARγ (GAL4-hPPARγ LBD) (Homo sapiens, UniProt P37231); assay: PPARγ transactivation activity (GAL4 chimera luciferase reporter in CV-1 cells); format: cell-based
T3 construct: Receptor expression plasmid (GAL4-hPPARα, LBD GAL4-hPPARγ LBD, GAL4-hPPARδ LBD); expressed in transfected cells; host or cells: CV-1 cells
T3 sequence (P37231 238-503 limits assumed): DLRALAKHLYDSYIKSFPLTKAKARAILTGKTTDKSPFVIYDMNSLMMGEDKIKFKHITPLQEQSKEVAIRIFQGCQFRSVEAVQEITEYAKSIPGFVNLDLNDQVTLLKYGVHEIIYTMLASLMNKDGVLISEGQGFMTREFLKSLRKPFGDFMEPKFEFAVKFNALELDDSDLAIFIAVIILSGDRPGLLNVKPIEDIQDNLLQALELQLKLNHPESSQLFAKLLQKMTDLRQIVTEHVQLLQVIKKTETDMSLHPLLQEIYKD

[1] = compound at 10^−7 M (value without parentheses)
[2] = compound at 10^−6 M (value in parentheses)

SMILES	Relative activity for PPAR transactivation, α (PPARα (GAL4-hPPARα LBD); [1])	Relative activity for PPAR transactivation, δ (PPARδ (GAL4-hPPARδ LBD); [1])	Relative activity for PPAR transactivation, γ (PPARγ (GAL4-hPPARγ LBD); [1])	Relative activity for PPAR transactivation, α (PPARα (GAL4-hPPARα LBD); [2])	Relative activity for PPAR transactivation, δ (PPARδ (GAL4-hPPARδ LBD); [2])	Relative activity for PPAR transactivation, γ (PPARγ (GAL4-hPPARγ LBD); [2])	other results
Cc1cc(C(=O)CCc2sc(-c3ccc(C(F)(F)F)cc3)nc2C(C)C)ccc1OC(C)(C)C(=O)O [Example 4, 2-[4-[3-[2-(4-Trifluoromethyl)phenyl-4-isopropyl-5-thiazolyl]propionyl]-2-methylphenoxy]-2-methylpropionic acid]							Ratio of increasing HDL cholesterol (% to control) (db/db mice): 176 % to control; HDL cholesterol elevating effect (in words) (db/db mice): excellent effect of increasing HDL cholesterol; Relative activity for PPAR transactivation, α (PPARα (GAL4-hPPARα LBD); compound at 10^−7 M, CV-1 cells, 40 hours, positive control 10^−4 M WY-14643 = 100%): 11 % of control; Relative activity for PPAR transactivation, δ (PPARδ (GAL4-hPPARδ LBD); compound at 10^−7 M, CV-1 cells, 40 hours, positive control 10^−4 M L-165041 = 100%): 86 % of control; Relative activity for PPAR transactivation, γ (PPARγ (GAL4-hPPARγ LBD); compound at 10^−7 M, CV-1 cells, 40 hours, positive control 10^−5 M Rosiglitazone = 100%): 12 % of control
Cc1cc(C=CCc2sc(-c3ccc(C(F)(F)F)cc3)nc2C(C)C)ccc1OCC(=O)O [Example 10, [4-[3-[4-Isopropyl-2-(4-trifluoromethyl)phenyl-5-thiazolyl]-1-propenyl]-2-methylphenoxy]acetic acid]	0 % of control	67 % of control	1 % of control				Ratio of increasing HDL cholesterol (% to control) (db/db mice): 134 % to control; HDL cholesterol elevating effect (in words) (db/db mice): excellent effect of increasing HDL cholesterol
Cc1cc(C(=O)CCc2sc(-c3ccc(C(F)(F)F)cc3)nc2C(C)C)ccc1OC(C)C(=O)O (stereo not shown) [Example 43, 2-[4-[3-[4-Isopropyl-2-(4-trifluoromethyl)phenyl-5-thiazolyl]propionyl]-2-methylphenoxy]propionic acid]	3 % of control	42 % of control	5 % of control				
CCCCCCc1nc(-c2ccc(C(F)(F)F)cc2)sc1CC=Cc1ccc(OC(C)(C)C(=O)O)c(C)c1 [Example 45, 2-[4-[3-[4-Hexyl-2-(4-trifluoromethyl)phenyl-5-thiazolyl]-1-propenyl]-2-methylphenoxy]-2-methylpropionic acid]	90 % of control	49 % of control	20 % of control				
CCCCCCc1nc(-c2ccc(C(F)(F)F)cc2)sc1CCC(=O)c1ccc(C)c(OC(C)(C)C(=O)O)c1 [Example 46, 2-[5-[3-[4-Hexyl-2-(4-trifluoromethyl)phenyl-5-thiazolyl]propionyl]-2-methylphenoxy]-2-methylpropionic acid]				(78) % of control	(46) % of control	(69) % of control	
CCc1nc(-c2ccc(C(F)(F)F)cc2)sc1CCC(=O)c1ccc(OCC(=O)O)c(C)c1 [Example 47, [4-[3-[4-Ethyl-2-(4-trifluoromethyl)phenyl-5-thiazolyl]propionyl]-2-methylphenoxy]acetic acid]	0 % of control	57 % of control	0 % of control				

Further lines, with some results ahead:

Relative activity for PPAR transactivation, α (PPARα (GAL4-hPPARα LBD); [1])	Relative activity for PPAR transactivation, δ (PPARδ (GAL4-hPPARδ LBD); [1])	Relative activity for PPAR transactivation, γ (PPARγ (GAL4-hPPARγ LBD); [1])	Relative activity for PPAR transactivation, α (PPARα (GAL4-hPPARα LBD); [2])	Relative activity for PPAR transactivation, δ (PPARδ (GAL4-hPPARδ LBD); [2])	Relative activity for PPAR transactivation, γ (PPARγ (GAL4-hPPARγ LBD); [2])	SMILES	other results
5 % of control	66 % of control	3 % of control				CC(C)c1nc(-c2ccc(C(F)(F)F)cc2)sc1CCC(=O)c1ccc(OC(C)(C)C(=O)O)c(Cl)c1 [Example 34, [4-[3-[2-(4-Trifluoromethyl)phenyl-4-isopropyl-5-thiazolyl]propionyl]-2-chlorophenoxy]-2-methylpropionic acid]	
			(3) % of control	(69) % of control	(9) % of control	Cc1cc(C(=O)CCc2nc(-c3ccc(C(F)(F)F)cc3)sc2C(C)C)ccc1OC(C)(C)C(=O)O [Example 38, 2-[4-[3-[5-Isopropyl-2-(4-trifluoromethyl)phenyl-4-thiazolyl]propionyl]-2-methylphenoxy]-2-methylpropionic acid]	
			(84) % of control	(51) % of control	(13) % of control	CCc1nc(-c2ccc(C(F)(F)F)cc2)sc1CCC(=O)c1ccc(OC(C)(C)C(=O)O)c(C)c1 [Example 48, 2-[4-[3-[4-Ethyl-2-(4-trifluoromethyl)phenyl-5-thiazolyl]propionyl]-2-methylphenoxy]-2-methylpropionic acid]	
